Laboratory results as given in patent US20100144743A1, “COMPOSITIONS AND METHODS FOR INHIBITION OF TYROSINE KINASES” (BOARD OF REGENTS, THE UNIVERSITY OF TEXAS SYSTEM, priority 2006, published 2010).
Several values for one entry are separate records, joined by “and”; a condition that tells them apart may be missing. Equal values may be shown once. Read-outs that look alike come from different tables or passages of the source.

Key:
[1] = system: C6#4 cells
[2] = system: HIF-1; experiment: HIF-1 GFP/DsRFP expression (G/R) in C6#4 cells stimulated by CoCl2; type: cell-based

| EC50 ([2]; C6#4 cells, experiment 1, read-out: G/R (EC-50) 1 ex) | EC50 ([2]; C6#4 cells, experiment 2, read-out: G/R (EC-50) 2 ex) | EC50 ([2]; C6#4 cells, experiment 3, read-out: G/R (EC-50) 3 ex) | Compound | cytotoxicity [1] | EC50 ([1]; read-out: WST-1 (EC-50) 1 ex) | EC50 ([1]; read-out: WST-1 (EC-50) 2 ex) | EC50 ([1]; read-out: WST-1 (EC-50) 3 ex) | EC50 ([2]; read-out: EC 50 G/R) | EC50 ([2]; read-out: G/R (EC-50) 2 ex) | EC50 ([2]; read-out: G/R (EC-50) 3 ex) | EC50 ([1]; read-out: WST-1 (EC-50)) | EC50 ([1]; read-out: WST-1 (EC-50) Mean) | G/R:WST-1 Ratio Mean [2] | EC50 ([2]; read-out: G/R (EC-50) 1 ex) | EC50 ([2]; C6#4 cells, 24 h exposure, GFP normalized to RFP, Table 2, read-out: G/R (EC-50)) | EC50 ([2]; read-out: G/R (EC-50)) | EC50 ([2]; read-out: G/R (REC-50) Mean) | influence on C6#4 cells ([1]; concentration 200 μM) | EC50 ([1]; read-out: WST-1 (EC-50) 1 ex, C6#4 cells, experiment 1) |
| --- | --- | --- | --- | --- | --- | --- | --- | --- | --- | --- | --- | --- | --- | --- | --- | --- | --- | --- | --- |
|  |  |  | COc1ccc(Nc2nccn3c(-c4cccc(C(N)=O)c4)cnc23)cc1 [LG2-13] | doesn't have cytotoxicity | 7.08 µM | 101 µM | 99.7 µM | 7.95 µM | 6.9 µM | 8.97 µM |  |  |  |  |  |  |  |  |  |
|  |  |  | CN(C)CCNC(=O)c1ccc(-c2cnc3c(Nc4ccc(Oc5ccccc5)cc4)nccn23)cc1 [LG2-11] |  | 18.1 µM | 16.6 µM | 24.2 µM |  | 15.7 µM | 6.07 µM | 19.6 µM | 19.6 µM | 2.2 and 2.237 | 10.9 µM |  |  |  |  |  |
|  |  |  | O=C(NCCO)c1cccc(-c2cnc3c(NCc4cccs4)nccn23)c1 [LG2-98] |  |  |  |  |  |  |  |  |  |  |  | 20.4 µM |  |  |  |  |
|  |  |  | CC(=O)c1cccc(-c2cnc3c(Nc4ccc(N5CCOCC5)cc4)nccn23)c1 [LG2-81] |  | 32.2 µM | 40.2 µM | 43.9 µM |  | 12.2 µM | 10.5 µM | 38.8 µM | 38.8 µM | 3.7 | 8.66 µM |  | 10.5 µM | 10.5 µM |  |  |
|  |  |  | COc1cc(-c2cnc3c(Nc4ccccc4)nccn23)ccc1O [LG2-62] |  | 19.5 µM | 43.9 µM | 27.1 µM |  | 24.4 µM | 18.9 µM | 30.1 µM | 30.1 µM | 1.5 and 1.533 | 13.5 µM |  | 18.9 µM | 18.9 µM |  |  |
|  |  |  | c1ccc2c(-c3cnc4c(Nc5ccc6[nH]ccc6c5)nccn34)cccc2c1 [LG2-89] |  | 21.4 µM | 40.4 µM | 44.4 µM |  | 42.7 µM | 27.2 µM | 35.4 µM | 35.4 µM | 1.4 and 1.383 | 13.7 µM |  | 27.9 µM | 27.9 µM |  |  |
| 9070 µM | 3860 µM | 5670 µM | CC(C)c1ccc(Nc2nccn3c(-c4cccc(O)c4)cnc23)cc1 [LG2-65] |  |  |  |  |  |  |  |  |  |  |  |  |  |  | doesn't influence | 56.4 µM |
|  |  |  | COc1cccc(-c2cnc3c(Nc4ccccc4)nccn23)c1 [LG2-85] |  | 34.8 µM | 41.6 µM | 67.9 µM |  | 23.1 µM | 23.5 µM | 48.1 µM | 48.1 µM | 2.0 and 2.033 | 23.9 µM |  | 23.5 µM | 23.5 µM |  |  |
|  |  |  | c1ccc(Oc2ccc(Nc3nccn4c(-c5ccc6[nH]ccc6c5)cnc34)cc2)cc1 [LG2-7] |  | 23 µM | 39.9 µM | 42.7 µM |  | 9.34 µM | 3.89 µM | 35.2 µM | 35.2 µM | 5.6 and 5.633 | 14.2 µM |  | 9.1 µM | 9.15 µM |  |  |
|  |  |  | COc1cc(Nc2nccn3c(-c4cccc(C(C)=O)c4)cnc23)cc(OC)c1OC [LG2-75] |  | 7.04 µM | 16.4 µM | 26.8 µM |  | 16.3 µM | 23.7 µM | 16.8 µM | 16.8 µM | 1.2 and 1.233 | 4.37 µM |  | 14.8 µM | 14.8 µM |  |  |
|  |  |  | COc1cc(OC)cc(-c2cnc3c(NCC4CC4)nccn23)c1 [LG2-102] |  |  |  |  |  |  |  | 52.7 µM |  |  |  |  | 37.4 µM |  |  |  |
